Assay results from patent US10684290B2, “LKB1 related diagnostics and treatments of cancer” (Dignity Health, priority 2014, dated 2020).

Experiments:
[1] = system: H838-KDLKB1 and H838-LKB1 cells; experiment: Immunoblot of ER stress markers in H838-LKB1 and H838-KDLKB1 cells; assay type: cell-based, human; details: 12 h; 2DG 10 mM, Tm 1.25 ug/ml, BFA 30 ng/ml
Experimental: (§1) Cells were washed once with ice-cold PBS and incubated on ice for 30 min with a lysis buffer containing 10 mM Tris-HCl, 150 mM NaCl, 0.1% SDS and 1% IGEPAL (Sigma) to which a protease inhibitor cocktail (Sigma) and two phosphatase cocktails I and II (Sigma) were added immediately before use. Lysates were transferred to tubes and insoluble material was pelleted by centrifugation. For immunoblotting, 50-100 μg of total protein lysates were separated by SDS-PAGE and transferred to nitrocellulose. Blots were blocked in 5% milk/Tris buffered saline/0.1% TWEEN® 20 (polyoxyethylenesorbitan monolaurate) (TBST) and primary antibodies were diluted in 5% Bovine Serum Albumin (Sigma)/TBST and incubated overnight at 4° C. Blots were developed with ECL plus (GE) and visualized on a Kodak Image station.

H838-KDLKB1 cells = experiment: Clonogenic survival of H838-LKB1 and H838-KDLKB1 cells; assay type: cell-based, human; details: for Clonogenic cell survival of H838-KDLKB1 cells: 24 h, 2DG 10 mM, Tm 1.25 μg/ml, BFA 30 ng/ml
Experimental: (§2) Clonogenic survival assay were performed in 6 well dishes. Briefly, 200 of indicated cells were plated per well and allowed to attach overnight. Were indicated cells were pre-treated with 125 ng/ml of cyclohexamide (CHX) for one hour. Indicated drugs were diluted fresh into media and cells were treated for 24 h, at which time the drug containing media was removed and replaced with fresh media. After 14 days, cells were fixed in 10% Methanol/10% Acetic Acid and stained with 0.5% crystal violet. After washing in ddH2O, plates were allowed to dry and colonies of 50 cells or more were counted. The surviving fraction was calculated according to methods described by Franken et al. [Clonogenic assay of cells in vitro, NAT. PROT. 1 (5) (2006) 2315-2319].

[2] = system: A427-KDLKB1 and A427-LKB1 cells; experiment: ATP measurement/cell viability (CellTiter-Glo), A427; assay type: cell-based, human; details: 48 h; 2DG 10 mM, Tm 1.25 μg/ml, BFA 30 ng/ml; p<0.005
Experimental: (§3) 500 H838 or A427 cells stably expressing either LKB1 or KDLKB1 were plated in 96 well plates. The following day, cells were dosed with the indicated treatments for 48 h. Cellular ATP levels were assessed using the CellTiter-Glo Luminescent Cell Viability Assay substrate (Promega) according to manufacturer's instructions. Luminescence was read using the DTX 880 Multimode Detector. Cellular ATP/cell viability was calculated relative to vehicle treated control.

[3] = system: H838-KDLKB1 and H838-LKB1 cells; experiment: Flow cytometry of ROS levels (CellROX staining); assay type: cell-based, human; details: CellROX FACS, 12 h; 2DG 10 mM, Tm 1.25 μg/ml, BFA 30 ng/ml; baseline difference 1.4-fold
Experimental: To analyze levels of reactive oxygen species (ROS), 1×10^6 H838-KDLKB1 and H838-LKB1 cells were plated and treated with the indicated drugs. Cells were then stained with 0.5 1M CellRox™ for 30 min at 37° C., collected by trypsinization and washed with PBS. Following fixation with 2% Paraformaldehyde/PBS for 20 min, cells were brought to a final volume of 500 ll in PBS. CellRox™ staining of ROS was assessed using the Accuri C6 Flow Cytometer (BD Biosciences, San Jose, Calif., USA) with the threshold set at 80,000. A total of 30,000 events were collected per sample and ROS staining intensity determined using FCS Express 4 Flow Cytometer software. Background events were gated out using unstained control. Histogram plots were overlaid and histogram subtraction was performed by subtracting the integral of the stained control from the treated sample.

[4] = system: H838-KDLKB1 and H838-LKB1 cells; experiment: ATP measurement/cell viability (CellTiter-Glo), H838; assay type: cell-based, human; details: 48 h; 2DG 10 mM, Tm 1.25 μg/ml, BFA 30 ng/ml; p<0.005
Experimental: as §3

[5] = system: H23-KDLKB1 and H23-LKB1 cells; experiment: Clonogenic survival of H23-LKB1 and H23-KDLKB1 cells; assay type: cell-based, human; details: 24 h treatment, colonies after 14 days
Experimental: Clonogenic survival assay were performed in 6 well dishes. Briefly, 300-500 cells were plated per well and allowed to attach overnight. Drugs were diluted fresh into media and cells were treated for 24 hours. Drug containing media was removed and replaced with fresh media. After 14 days, cells were fixed in 10% Methanol/10% Acetic Acid and stained with 0.5% crystal violet. After washing in ddH2O, plates were allowed to dry and colonies of 50 cells or more were counted. The surviving fraction was calculated according to methods described by Franken, et al.
as §2

[6] = system: H23-KDLKB1 and H23-LKB1 NSCLC cells; experiment: Immunoblot of BiP and CHOP in H23-LKB1 and H23-KDLKB1 cells; assay type: cell-based, human; details: 18 h; or bortezomib (40 nM)
Experimental: as §1

AMPK, H2009 LA cells = experiment: Immunoblot of BiP and CHOP in H2009 cells with AMPK inhibitor before 2DG; assay type: cell-based, human; set-up: dose or concentration left out as unconfirmed; details: H2009 cells treated with Compound C
Experimental: Cells were incubated on ice for 30 minutes with a lysis buffer containing 10 mM Tris-HCL, 150 mM NaCl, 0.1% SDS and 1% IGEPAL (Sigma). Immediately before use, a protease inhibitor cocktail (Sigma) and two phosphatase cocktails I and II (Sigma) were added to the lysis buffer. Lysates were transferred to tubes and insoluble material was pelleted by centrifugation. Nuclear protein fractions were isolated using a NE-PER protein extraction kit (ThermoFisher) according to manufacturer's instructions. Protein concentration was determined using the Bio-Rad DC protein kit. For immunoblotting, 50-100 ug of total protein lysates was separated by SDS-PAGE and transferred to nitrocellulose. Blots were blocked in 5% milk/Tris buffered saline/0.1% TWEEN® 20 (polyoxyethylenesorbitan monolaurate) (TBST) and primary antibodies were diluted in 5% Bovine Serum Albumin (Sigma)/TBST and incubated overnight at 4° C. Blots were developed with ECL plus (GE) and visualized on a Kodak Image station.

[7] = Chronic dosing tolerability in vivo
[8] = system: H23-LKB1 and H23-KDLKB1 cells; experiment: Caspase 3/7 activity assay; assay type: cell-based, human; details: 5 ug/ml, 24 hours
Experimental: H23-LKB1 and H23-KDLKB1 cell were plated as described previously and treated for 24 hours with tunicamycin (5 ug/ml) or vehicle (DMSO). Activity of Caspases 3 and 7 were determined using a Promega Caspase-Glo 3/7 kit and data analyzed as described previously.

Compound	Phosphorylated eIF2a in H838-KDLKB1 compared to H838-LKB1 cells [1]	Clonogenic cell survival of H838-KDLKB1 cells (H838-KDLKB1 cells)	Cellular ATP in A427-KDLKB1 compared to A427 re-expressing LKB1 [2]	ROS levels in H838-KDLKB1, increase in intensity over H838-LKB1 [3]	Cellular ATP in H838-KDLKB1 compared to H838 re-expressing LKB1 [4]	Clonogenic survival / cytotoxicity in H23-KDLKB1 compared to H23-LKB1 [5]	BiP expression in H23-KDLKB1 compared to H23 cells with reconstituted LKB1 [6]	CHOP expression in H23-KDLKB1 compared to H23 cells with reconstituted LKB1 [6]	other results
C[C@H]1CCC/C=C/[C@@H]2C[C@H](O)C[C@H]2[C@H](O)/C=C/C(=O)O1 [BFA, brefeldin A]	increased levels of phosphorylated eIF2a	reduced cell survival	reduced ATP	1.2 fold	reduced ATP	–	–	–	–
C[C@@H]1C[C@@H]([C@H](O)CC2CC(=O)NC(=O)C2)C(=O)[C@@H](C)C1 [CHX, Cycloheximide]	–	–	–	–	–	–	–	–	Effect of added CHX on 2DG, BFA and Tm cytotoxicity in H838-KDLKB1 cells (H838-KDLKB1 cells; 125 ng/ml CHX pre-treatment one hour, compared to 2DG, BFA or Tm alone, p<0.05): ameliorate 2DG, BFA and Tm cytotoxicity
CC(C)C[C@H](NC(=O)[C@H](Cc1ccccc1)NC(=O)c1cnccn1)B(O)O [bortezomib]	–	–	–	–	–	reduced the survival of H23-KDLKB1 cells in a dose dependent manner	9 fold decrease	1.6 fold decrease	–
Cc1ccc(-c2cc(C(F)(F)F)nn2-c2ccc(S(N)(=O)=O)cc2)cc1 [celecoxib]	–	–	–	–	–	reduced the survival of H23-KDLKB1 cells in a dose dependent manner	1.6 fold decrease	1.3 fold decrease	–
c1cc(-c2cnn3cc(-c4ccc(OCCN5CCCCC5)cc4)cnc23)ccn1 [compound C]	–	–	–	–	–	–	–	–	Expression of BiP and CHOP in response to 2DG (AMPK, H2009 LA cells): prevented expression of both BiP and CHOP
tunicamycin [Tm]	increased levels of phosphorylated eIF2a	reduced cell survival	reduced ATP	1.67 fold	reduced ATP	increased cytotoxicity	–	–	Tolerability of chronic dosing [7]: poorly tolerated; Activity of Caspases 3 and 7 (apoptosis) in H23-KDLKB1 versus H23-LKB1 [8]: increased levels of Caspase activity
